The target of one data set is Carbonic anhydrase 1 (Homo sapiens, UniProt P00915). Description: Inhibition of human full-length cytosolic CA1 after 6 hrs by stopped flow CO2 hydration assay.
The next data set deals with Carbonic anhydrase 2 (Homo sapiens, UniProt P00918). Description: Inhibition of human full-length cytosolic CA2 after 6 hrs by stopped flow CO2 hydration assay.
In the next data set the target is Carbonic anhydrase 9 (Homo sapiens, UniProt Q16790). The data set can be described thus: Inhibition of human recombinant CA9 after 6 hrs by stopped flow CO2 hydration assay.
The next data set has as its target Carbonic anhydrase 12 (Homo sapiens, UniProt O43570). Description: Inhibition of human recombinant CA12 after 6 hrs by stopped flow CO2 hydration assay.
For data set [1], the system named is Mus musculus. Description: Toxicity in mouse 4T1 cells expressing […] xenografted BALB/c mouse assessed as mortality at 30 mg/kg, iv administered on days 11,13,16 and 19. More on the design: dose 30 mg/kg, route intravenous. The following applies: in vivo. The format is organism-based.
Data set [2] has as its system Mus musculus. Description: Toxicity in mouse 4T1 cells expressing CA9 xenografted BALB/c mouse assessed as weight loss at 30 mg/kg, iv administered on days 11,13,16 and 19. As to conditions: in vivo.
The subject of a further data set is 4T1. Description: Anticancer activity against mouse 4T1 cells expressing CA9 xenografted in BALB/c mouse assessed as tumor growth inhibition at 30 mg/kg, iv administered on days 11,13,16 and 19.

Calls of active or inactive are those of the source. No cut-off for these calls is given here.

Carbonic anhydrase 12, sequence (O43570 whole entry): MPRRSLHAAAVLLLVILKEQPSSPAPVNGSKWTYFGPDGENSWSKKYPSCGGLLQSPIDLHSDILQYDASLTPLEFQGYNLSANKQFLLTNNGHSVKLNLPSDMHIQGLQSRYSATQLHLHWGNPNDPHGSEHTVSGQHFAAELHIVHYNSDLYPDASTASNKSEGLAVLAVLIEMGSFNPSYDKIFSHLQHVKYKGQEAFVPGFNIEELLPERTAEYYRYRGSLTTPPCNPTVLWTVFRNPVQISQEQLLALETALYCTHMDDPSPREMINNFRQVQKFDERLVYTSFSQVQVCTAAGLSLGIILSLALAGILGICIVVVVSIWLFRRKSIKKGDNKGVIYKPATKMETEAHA
Carbonic anhydrase 1, sequence (P00915 whole entry): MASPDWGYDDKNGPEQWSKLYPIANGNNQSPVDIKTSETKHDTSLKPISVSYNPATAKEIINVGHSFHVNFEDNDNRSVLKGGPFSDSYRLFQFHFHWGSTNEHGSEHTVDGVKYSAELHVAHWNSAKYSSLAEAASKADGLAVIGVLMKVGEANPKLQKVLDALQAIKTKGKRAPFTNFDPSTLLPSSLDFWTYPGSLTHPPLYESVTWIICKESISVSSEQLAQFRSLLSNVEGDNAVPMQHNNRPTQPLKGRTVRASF

For the molecule `Cc1cc(=O)oc2cc(O)ccc12` [HYMECROMONE], the inhibition constant Ki (as a rule, the equilibrium dissociation constant of an inhibitor or competing ligand from its target) at Carbonic anhydrase 1 is above 100 µM; at Carbonic anhydrase 2, above 100 µM; at Carbonic anhydrase 9, 0.56 µM; on Carbonic anhydrase 12 it was 8.1 µM.

For `Cc1cc(=O)oc2cc(O[C@@H]3O[C@H](CO)[C@@H](O)[C@H](O)[C@H]3O)ccc12`, the Ki at Carbonic anhydrase 1 is 1 µM; at Carbonic anhydrase 2, above 100 µM; at Carbonic anhydrase 9, 0.37 µM; at Carbonic anhydrase 12, 0.054 µM.

As to `Cc1cc(=O)oc2cc(O[C@@H]3O[C@@H](C)[C@H](O)[C@@H](O)[C@H]3O)ccc12`, the Ki was above 100 µM at Carbonic anhydrase 1, above 100 µM at Carbonic anhydrase 2, 0.201 µM on Carbonic anhydrase 9 and 0.184 µM on Carbonic anhydrase 12.

Consider `Cc1cc(=O)oc2cc(O[C@H]3O[C@H](CO)[C@@H](O)[C@H](O)[C@@H]3O)ccc12`, for which the inhibition constant (Ki) on Carbonic anhydrase 1 was above 100 µM; at Carbonic anhydrase 2, above 100 µM; on Carbonic anhydrase 9, 0.0092 µM; on Carbonic anhydrase 12 it was 0.043 µM. Besides, the Activity entry in the data set on Mus musculus [1] and with Mus musculus [2] was “Non-toxic” in each case. Also, in the data set on 4T1, the “growth inhibition (GI)” value is “Active”.

As to `Cc1cc(=O)oc2cc(O[C@@H]3O[C@H](CO[C@H]4O[C@H](CO)[C@H](O)[C@H](O)[C@H]4O)[C@@H](O)[C@H](O)[C@H]3O)ccc12`, the Ki stood at 0.88 µM on Carbonic anhydrase 1, 0.59 µM at Carbonic anhydrase 2, 0.82 µM on Carbonic anhydrase 9 and 0.101 µM at Carbonic anhydrase 12.

As for `Cc1cc(=O)oc2cc(O[C@@H]3O[C@H](CO)[C@H](O)[C@H](O)[C@H]3O)ccc12`, the inhibition constant (Ki) is 0.59 µM at Carbonic anhydrase 1, 77 µM on Carbonic anhydrase 2, 0.093 µM at Carbonic anhydrase 9 and 0.0085 µM at Carbonic anhydrase 12.

Source of the values: ChEMBL document CHEMBL1938342 (J Med Chem, 2011).
